How the values were obtained:
[1] = Study 2 Part A: multiple-dose, dose-escalation pharmacokinetics (Phase 1, 14 days); type: in vivo, human; conditions: after 2 weeks of dosing
Protocol: The 2-part multiple-dose study, Study 2, determined the safety and tolerability of repeated daily doses of Compound 1 and investigated the effects on biomarkers of relevance for the treatment of alcohol dependence.
PK were also evaluated in the multiple-dose, dose-escalation study, Study 2. In Part A of the study, subjects were divided into 3 cohorts and received 50, 150, or 200 mg Compound 1 or placebo for 14 consecutive days (at least 6 subjects received Compound 1 and 2 subjects received placebo in each cohort). […] All dosing occurred in the fed state. An assessment of diurnal cortisol levels, plus when under conditions of glucose clamp, were also carried out both prior to and during the dosing period.
Consistent with the single-dose study (Study 1), concentrations appeared to decline in a bi-exponential manner, characterized by a rapid decrease within the first 24 hours. […] The Tmax appeared to be consistent across doses. Overall half-lives, weight normalized CL/F and V/F were consistent for 150 and 200 mg. However, the values for these latter 2 parameters were almost doubled at the 50-mg dose level. Variability (CV %) for apparent clearance and volume of distribution were large and not reduced with weight-normalization.
Table 8 presents the results of the dose proportionality assessment for the AUC0-24 and Cmax over the tested dose range.

[2] = Study 1: single-escalating oral dose pharmacokinetics, incl. food effect (Phase 1); type: in vivo, human; conditions: 50 to 800 mg, fed state
Protocol: Study 1 was the first-in-human study that investigated the safety, tolerability, and PK of single-escalating doses of Compound 1, given orally, to healthy adult subjects. […] The data from this study were used for the selection of doses for Study 2.
In Study 1, Compound 1 was administered to healthy adult subjects as a single PO dose of 2, 10, 50, 150, 400, or 800 mg in the fed state and 150 mg in the fasted state. Absorption occurred moderately late, achieving peak Cmax between 4 to 6 hours following dosing in the fed state.
When Compound 1 was given in the fed state, median time to reach maximum plasma concentration (Tmax) occurred between 4 and 6 hours.
As part of this single-dose escalation study, a food effect PK investigation was performed to examine Compound 1 exposures in both the fed and fasted states at the 150-mg dose level. A total of 6 subjects were administered 150 mg Compound 1 in each of these 2 dosing groups. Of these 6 subjects, 4 subjects received Compound 1 at the same dose in both fed and fasted states. […] Table 6 provides a summary of the PK parameters at the 150-mg dose level under both fed and fasted state conditions.
PK parameters AUC0-∞ and Cmax were analyzed separately for dose proportionality for Compound 1 from 50 to 800 mg when administered in the fed state. […]

CRF1 receptor = molecular target: T1, CRF1 receptor (Homo sapiens, UniProt P34998); assay: Phase 2 study in adults with classic CAH: hormone response (ACTH, 17-OHP, androstenedione); type: in vivo
T1 construct: from tissue; host or cells: in vivo, human patients (anterior pituitary corticotrophs)
T1 sequence (P34998 24-415): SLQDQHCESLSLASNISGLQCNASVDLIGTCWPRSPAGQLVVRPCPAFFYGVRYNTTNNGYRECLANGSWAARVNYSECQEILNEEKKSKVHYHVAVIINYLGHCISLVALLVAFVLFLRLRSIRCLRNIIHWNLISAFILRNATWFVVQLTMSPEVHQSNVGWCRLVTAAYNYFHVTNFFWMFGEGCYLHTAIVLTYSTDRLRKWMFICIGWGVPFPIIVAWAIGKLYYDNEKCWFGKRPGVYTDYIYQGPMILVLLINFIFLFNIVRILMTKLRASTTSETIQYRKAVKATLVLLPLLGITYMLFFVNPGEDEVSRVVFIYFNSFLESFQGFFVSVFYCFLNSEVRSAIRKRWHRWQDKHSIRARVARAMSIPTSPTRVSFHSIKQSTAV
From the text: Cohort A of the Phase 2 Study includes a 6-week, multiple-dose, dose escalation study of Compound 1 for the treatment of adults with classic CAH. After screening, eligible patients will be enrolled into a 6-week treatment period followed by a 4-week washout/safety follow-up period.
This cohort will be conducted in approximately 9 patients, who will receive Compound 1 daily for up to 6 weeks. Compound 1 will be administered as an oral daily dose. Patients will undergo titration of Compound 1 through three escalating dosage strengths at 2-week intervals. […]
Patients in Cohort B will receive study drug at 200 mg BID, with a dose in the morning and a dose in the evening, either with a meal or consumption of a standardized snack. For Cohorts C and D, the dose level and the frequency and timing of dosing will be determined based on interim data from the previous cohorts. […]
• 1. […] To assess the efficacy of Compound 1 in subjects with classic CAH as measured by percent and absolute change in 17-OHP compared to baseline.
• 3. To explore the dose(s) of Compound 1 that cause pharmacodynamics changes in plasma concentrations of ACTH, androstenedione, and testosterone, as measured by the absolute and percent change from baseline by dose. • 4. […]

Structure (SMILES): CCC(CC)c1cc(C)nc2c(-c3sc(N4CCOCC4)nc3Cl)c(C)nn12 [Compound 1, 3-(4-Chloro-2-(morpholin-4-yl)thiazol-5-yl)-7-(1-ethylpropyl)-2,5-dimethylpyrazolo(1,5-a)pyrimidine]
- Blood concentrations relative to steady state [1]: close to steady-state levels
- AUC0-∞ increase for every doubling of dose, relative to dose proportionality [2]: 1.74 times
- Cmax dose proportionality, in words [2]: more than dose proportional
- subjects with 17-OHP within the guideline range after treatment (CRF1 receptor; guideline range (1200 ng/dL)): 50%
- morning rise in A4 (CRF1 receptor; patients with CAH): attenuates
